Results: US20220370381A1 (priority 2016, published 2022)
Changes are numbered by the printed parent chain. Read-outs that look alike come from different tables or passages of the source.

Assays:
serotonin 5-HT1A = target: T1, serotonin 5-HT1A (Rattus norvegicus, UniProt P19327); test: Competitive radioligand binding assay, serotonin 5-HT1A
T1 construct: serotonin 5-HT1A (rat cerebral cortex); from tissue; host or cells: rat cerebral cortex
T1 sequence (P19327 1-422): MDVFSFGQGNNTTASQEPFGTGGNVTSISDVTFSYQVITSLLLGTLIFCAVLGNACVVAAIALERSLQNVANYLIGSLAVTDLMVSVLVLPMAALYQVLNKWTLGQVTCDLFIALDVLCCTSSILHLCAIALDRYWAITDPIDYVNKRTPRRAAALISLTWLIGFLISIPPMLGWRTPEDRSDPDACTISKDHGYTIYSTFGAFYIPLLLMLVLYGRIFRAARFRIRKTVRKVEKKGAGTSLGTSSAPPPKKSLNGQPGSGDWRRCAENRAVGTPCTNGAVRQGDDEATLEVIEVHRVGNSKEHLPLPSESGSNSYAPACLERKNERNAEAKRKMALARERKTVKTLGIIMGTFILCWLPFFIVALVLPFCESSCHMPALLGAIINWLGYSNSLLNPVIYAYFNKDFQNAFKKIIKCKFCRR

[1] = target: Serotonin 5-HT2B (Human recombinant) (Homo sapiens, UniProt P41595); test: Competitive radioligand binding assay, serotonin 5-HT2B
Sigma 1 [2] = target: T2, Sigma 1 (Cavia porcellus, UniProt Q60492); test: Sigma-1 receptor tissue bioassay, guinea pig vas deferens, agonist activity (twitch contraction); parameters: Segments of guinea pig vas deferens were suspended in 20-ml organ baths; from tissue; host or cells: guinea pig vas deferens; details: field-stimulated guinea pig vas deferens, compound alone
[3] = target: T3, human β-2 adrenergic receptor (Homo sapiens, UniProt P07550); test: β-2 adrenergic receptor antagonist assay, agonist-induced cAMP production (HTRF); type: cell-based; parameters: expressed in transfected cells; host or cells: HEK-293; details: inhibition of isoproterenol-induced cAMP production
Procedure: Transfected HEK-293 cells expressing human β-1 adrenergic receptor, human β-2 adrenergic receptor, and human β3 adrenergic receptor, respectively, were prepared using cloned human cDNA. See H FRIELLE, T., COLLINS, S., DANIEL, K. W., CARON, M. G., LEFKOWITZ, R. J., KOBILKA, B. K. (1987), Cloning of the cDNA for the human beta1-adrenergic receptor, Proc. Natl. Acad. Sci. U.S.A., 84,7920, and BAKER, J. G. (2005) The selectivity of Beta-adrenoreceptor antagonists at the human Beta1, Beta2 and Beta3 adrenoreceptor, Brit.
Transfected cells were suspended in HBSS buffer (Invitrogen) complemented with 20 mM HEPES (pH 7.4) and 500 μM IBMX. […] The cells were then distributed in 96 well microplates (see FIG. 15 for plating densities).
After plating, the cells were induced by adding reference agonist. See FIG. 15 for reference agonists and concentrations used for each assay. […] The cells were then incubated 30 minutes at room temperature.
Subsequently, the cells were lysed and a fluorescence acceptor (D2-labeled cAMP) and a fluorescence donor (anti-cAMP antibody labeled with europium cryptate) were added to the wells.
Standard reference antagonists were tested in each experiment at several concentrations to generate a concentration-response curve from which its IC50 value is calculated.
EC50 values (concentration producing a half-maximal response) and IC50 values (concentration causing a half-maximal inhibition of the control agonist response) were determined by non-linear regression analysis of the concentration-response curves generated with mean replicate values using Hill equation curve fitting: […]
For the antagonists, the apparent dissociation constants (KB) were calculated using the modified Cheng Prusoff equation:
KB=IC50/[1+(A/EC50A)], where

[4] = target: T4, Human muscarinic M1 receptor (Homo sapiens, UniProt P11229); type: cell-based; details: acetylcholine-induced Ca2+ mobilization, CHO cells
T4 construct: expressed in transfected cells; host or cells: CHO
T4 sequence (P11229 1-460): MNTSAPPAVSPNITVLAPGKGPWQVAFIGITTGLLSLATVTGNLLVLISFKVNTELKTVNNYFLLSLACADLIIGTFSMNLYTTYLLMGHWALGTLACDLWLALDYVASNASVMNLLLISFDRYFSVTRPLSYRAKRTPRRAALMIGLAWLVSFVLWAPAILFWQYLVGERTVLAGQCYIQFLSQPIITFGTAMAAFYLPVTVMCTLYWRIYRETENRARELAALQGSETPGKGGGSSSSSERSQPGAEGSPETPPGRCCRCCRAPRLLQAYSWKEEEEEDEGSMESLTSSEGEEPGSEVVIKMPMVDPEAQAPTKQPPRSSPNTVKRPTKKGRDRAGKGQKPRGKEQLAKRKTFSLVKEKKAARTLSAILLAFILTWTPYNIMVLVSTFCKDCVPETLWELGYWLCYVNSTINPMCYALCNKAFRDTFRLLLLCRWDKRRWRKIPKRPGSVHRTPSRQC
Procedure: After plating, a fluorescent probe (Fluo4 NW, Invitrogen), mixed with probenicid in HBSS buffer (Invitrogen) complemented with 20 mM Hepes (Invitrogen) (pH 7.4), was added into each well and equilibrated with the cells for 60 min at 37° C., followed by a second incubation for 15 min at 22° C.
Thereafter, the assay plates were positioned in a microplate reader (CellLux, PerkinElmer). After a 5-min incubation, 3 nM acetylcholine was added to all except the basal control wells to a total reaction volume of 100 uL, and changes in fluorescence intensity which vary proportionally to the free cytosolic Ca2+ ion concentration, were measured.
The stock solutions were then diluted to [10×] in HBSS and 0.1% BSA just prior to use. Maximum tolerable DMSO concentration was 0.3%.

Swiss OF-1 mice [5] = details: female BKTO mice, O'Neill & Conway (2001); cited from earlier work
Swiss OF-1 mice [6] = test: Forced swim test (FST) in mice; details: acute IP injection, lower doses not active
rats = details: cited from earlier work
[7] = target: Serotonin 5-HT7 (Human recombinant) (Homo sapiens, UniProt P34969); test: Competitive radioligand binding assay, serotonin 5-HT7
Sigma 1 [8] = target: T2, Sigma 1; test: Competitive radioligand binding assay, Sigma 1; parameters: species or system Guinea pig
hNav1.5 = hNav1.5 (Homo sapiens, UniProt Q14524); test: Ion channel profiling, IonFlux HT automated patch clamp, hNav1.5
Swiss OF-1 mice [9] = test: Step-through passive avoidance, dizocilpine-induced deficit; type: in vivo, mouse; details: IP; 0.1 mg/kg not active
Swiss OF-1 mice [10] = test: Spontaneous alternation in the Y-maze, dizocilpine-induced deficit; type: in vivo, mouse; details: IP; 0.1 mg/kg not active
DBA/1 mice = details: comparator value, no test described; cited from earlier work
[11] = target: T3, human β-2 adrenergic receptor; test: Competitive radioligand binding assay, β2-adrenergic
Sigma 1 [12] = target: T2, Sigma 1; test: Sigma-1 receptor tissue bioassay, guinea pig vas deferens, antagonist activity ((+)SKF-10047-induced response); parameters: Segments of guinea pig vas deferens were suspended in 20-ml organ baths; from tissue; host or cells: guinea pig vas deferens; details: field-stimulated guinea pig vas deferens, (+)SKF-10047 100 μM
Sigma non-selective = test: Competitive radioligand binding assay, sigma non-selective; parameters: species or system Guinea pig
[13] = tested on: T5, β-Adrenergic (Non-selective); test: Competitive radioligand binding assay, β-adrenergic (non-selective); parameters: species or system Rat
T5 construct: β-1 adrenergic; other: test article 1×10^−6 and 1×10^−5 mol/L; rat brain

Na channel = tested on: T6, Na channel; test: Competitive radioligand binding assay, Na channel; parameters: species or system Rat
T6 construct: other: test article 1×10^−6 and 1×10^−5 mol/L; rat brain

Muscarinic M1 = target: T7, Muscarinic M1 (Rattus norvegicus, UniProt P08482); test: Competitive radioligand binding assay, muscarinic M1
T7 construct: Muscarinic M1 (Rat cerebral cortex); from tissue; host or cells: rat cerebral cortex
T7 sequence (P08482 1-460): T4 sequence (P11229 1-460) with A5V, T254S, P309S, R320K, A337G, I413V

[14] = Example 3, Ki=IC50/(1+L/Kd), IC50 expressed in mol/L, read-out: Ki, 5-HT1A
[15] = Example 2, seven concentrations
[16] = test article 1×10^−6 and 1×10^−5 mol/L, rat cerebral cortex
[17] = test article 1×10^−6 and 1×10^−5 mol/L, rat brain

T3 sequence (P07550 whole entry): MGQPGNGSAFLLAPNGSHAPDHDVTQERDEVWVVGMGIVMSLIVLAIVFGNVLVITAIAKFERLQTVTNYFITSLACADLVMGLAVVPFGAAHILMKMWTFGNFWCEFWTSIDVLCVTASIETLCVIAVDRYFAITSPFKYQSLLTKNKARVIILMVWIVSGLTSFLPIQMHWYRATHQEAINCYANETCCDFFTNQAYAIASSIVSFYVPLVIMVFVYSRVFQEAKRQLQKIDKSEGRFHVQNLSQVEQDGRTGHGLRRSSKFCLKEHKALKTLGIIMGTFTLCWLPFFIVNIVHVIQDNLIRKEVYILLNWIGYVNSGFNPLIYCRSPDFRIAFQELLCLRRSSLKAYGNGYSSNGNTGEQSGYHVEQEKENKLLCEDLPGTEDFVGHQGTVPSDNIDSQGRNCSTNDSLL
T2 sequence (Q60492 whole entry): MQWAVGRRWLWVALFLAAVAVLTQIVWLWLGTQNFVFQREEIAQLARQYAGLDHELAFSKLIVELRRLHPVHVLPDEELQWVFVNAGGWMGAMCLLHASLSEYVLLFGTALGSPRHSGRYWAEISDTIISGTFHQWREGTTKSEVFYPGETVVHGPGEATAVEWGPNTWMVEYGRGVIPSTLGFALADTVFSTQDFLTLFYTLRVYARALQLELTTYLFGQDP
hNav1.5, sequence (Q14524 whole entry): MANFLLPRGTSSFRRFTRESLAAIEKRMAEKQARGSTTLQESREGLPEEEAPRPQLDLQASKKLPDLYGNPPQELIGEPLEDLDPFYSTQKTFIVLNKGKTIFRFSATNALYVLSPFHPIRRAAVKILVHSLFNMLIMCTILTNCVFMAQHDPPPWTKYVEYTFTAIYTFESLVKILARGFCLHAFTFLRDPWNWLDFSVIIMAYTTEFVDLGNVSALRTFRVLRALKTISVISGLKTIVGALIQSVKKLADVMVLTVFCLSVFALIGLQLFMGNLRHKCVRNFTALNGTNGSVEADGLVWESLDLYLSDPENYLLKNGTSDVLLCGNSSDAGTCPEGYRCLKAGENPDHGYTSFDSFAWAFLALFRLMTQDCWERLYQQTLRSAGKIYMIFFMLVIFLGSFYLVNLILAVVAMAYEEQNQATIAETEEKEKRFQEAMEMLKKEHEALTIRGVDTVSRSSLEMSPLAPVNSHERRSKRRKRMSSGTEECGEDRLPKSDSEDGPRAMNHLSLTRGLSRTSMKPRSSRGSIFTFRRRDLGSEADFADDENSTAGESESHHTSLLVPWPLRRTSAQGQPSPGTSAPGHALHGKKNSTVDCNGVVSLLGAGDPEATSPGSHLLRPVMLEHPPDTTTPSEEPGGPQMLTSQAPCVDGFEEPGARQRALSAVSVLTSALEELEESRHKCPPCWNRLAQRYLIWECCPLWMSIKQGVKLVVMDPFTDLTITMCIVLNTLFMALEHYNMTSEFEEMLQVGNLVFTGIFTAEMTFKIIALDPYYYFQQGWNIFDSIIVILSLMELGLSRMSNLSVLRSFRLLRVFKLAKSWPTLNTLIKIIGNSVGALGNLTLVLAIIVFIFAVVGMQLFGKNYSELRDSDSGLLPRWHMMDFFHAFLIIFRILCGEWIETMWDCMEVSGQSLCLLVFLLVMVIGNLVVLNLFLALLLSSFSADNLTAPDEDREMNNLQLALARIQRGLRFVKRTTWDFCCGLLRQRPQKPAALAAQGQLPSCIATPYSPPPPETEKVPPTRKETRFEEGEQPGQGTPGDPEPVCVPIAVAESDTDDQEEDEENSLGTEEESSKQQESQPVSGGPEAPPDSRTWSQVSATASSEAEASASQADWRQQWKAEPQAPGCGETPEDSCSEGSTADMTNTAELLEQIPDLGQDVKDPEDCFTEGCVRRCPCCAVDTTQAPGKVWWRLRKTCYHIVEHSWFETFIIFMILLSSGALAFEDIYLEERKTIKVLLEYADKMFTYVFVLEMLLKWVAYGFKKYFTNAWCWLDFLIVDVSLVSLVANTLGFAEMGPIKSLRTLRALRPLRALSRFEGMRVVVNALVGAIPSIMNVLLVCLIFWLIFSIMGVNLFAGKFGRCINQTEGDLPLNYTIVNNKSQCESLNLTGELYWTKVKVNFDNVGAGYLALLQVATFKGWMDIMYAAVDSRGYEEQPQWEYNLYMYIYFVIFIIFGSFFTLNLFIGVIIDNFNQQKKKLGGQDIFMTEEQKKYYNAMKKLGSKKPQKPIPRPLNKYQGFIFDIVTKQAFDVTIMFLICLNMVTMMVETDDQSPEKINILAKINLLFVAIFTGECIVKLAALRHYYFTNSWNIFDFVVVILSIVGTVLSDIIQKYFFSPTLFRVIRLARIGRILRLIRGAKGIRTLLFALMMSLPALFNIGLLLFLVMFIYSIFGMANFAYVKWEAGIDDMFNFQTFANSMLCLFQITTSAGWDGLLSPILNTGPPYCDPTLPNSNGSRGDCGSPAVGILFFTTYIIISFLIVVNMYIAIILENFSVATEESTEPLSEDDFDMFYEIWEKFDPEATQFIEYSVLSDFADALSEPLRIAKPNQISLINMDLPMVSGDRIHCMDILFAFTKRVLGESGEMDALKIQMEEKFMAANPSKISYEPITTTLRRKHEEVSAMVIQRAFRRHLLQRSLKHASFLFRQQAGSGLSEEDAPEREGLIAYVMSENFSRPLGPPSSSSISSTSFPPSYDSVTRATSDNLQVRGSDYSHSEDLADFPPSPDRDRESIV
Serotonin 5-HT7 (Human recombinant), sequence (P34969 whole entry): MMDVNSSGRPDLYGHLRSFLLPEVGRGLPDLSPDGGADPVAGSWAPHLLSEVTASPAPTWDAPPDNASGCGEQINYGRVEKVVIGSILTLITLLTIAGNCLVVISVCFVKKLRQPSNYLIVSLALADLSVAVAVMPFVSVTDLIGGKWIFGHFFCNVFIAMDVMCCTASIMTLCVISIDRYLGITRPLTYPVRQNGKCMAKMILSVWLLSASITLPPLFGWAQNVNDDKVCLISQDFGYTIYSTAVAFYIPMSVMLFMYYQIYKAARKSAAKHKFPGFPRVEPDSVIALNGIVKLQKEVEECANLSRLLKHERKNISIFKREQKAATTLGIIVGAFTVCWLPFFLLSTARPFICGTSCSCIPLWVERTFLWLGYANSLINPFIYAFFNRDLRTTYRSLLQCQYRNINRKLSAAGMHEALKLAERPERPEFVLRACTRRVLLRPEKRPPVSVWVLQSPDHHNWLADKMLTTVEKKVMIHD
Serotonin 5-HT2B (Human recombinant), sequence (P41595 whole entry): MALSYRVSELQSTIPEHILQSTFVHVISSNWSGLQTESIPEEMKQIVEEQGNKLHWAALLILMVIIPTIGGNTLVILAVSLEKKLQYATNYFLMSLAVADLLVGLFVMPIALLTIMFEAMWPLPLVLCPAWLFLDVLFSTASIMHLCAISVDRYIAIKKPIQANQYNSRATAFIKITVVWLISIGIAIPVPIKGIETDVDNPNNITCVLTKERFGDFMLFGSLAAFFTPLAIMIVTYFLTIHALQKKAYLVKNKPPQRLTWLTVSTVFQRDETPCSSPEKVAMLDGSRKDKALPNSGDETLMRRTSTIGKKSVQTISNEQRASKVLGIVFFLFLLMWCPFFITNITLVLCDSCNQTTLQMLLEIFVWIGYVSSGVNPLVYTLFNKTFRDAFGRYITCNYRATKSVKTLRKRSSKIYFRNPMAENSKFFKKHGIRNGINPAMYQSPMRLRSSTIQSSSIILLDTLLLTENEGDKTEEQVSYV

CC(N)Cc1cccc(C(F)(F)F)c1 (single isomer, unassigned; (+)) [(+)norfenfluramine]
Ki (serotonin 5-HT1A; [14]): 1140 nM
Ki [1]: 242 nM
effect on twitch contraction amplitude (Sigma 1 [2]): concentration-dependent decrease

CC(N)Cc1cccc(C(F)(F)F)c1 (single isomer, unassigned; (-)) [(−)norfenfluramine]
Ki (serotonin 5-HT1A; [14]): 409 nM
Ki [1]: 1200 nM
antagonist activity at the beta-2 adrenergic receptor [3]: antagonist activity
antagonist activity at the muscarinic M1 receptor [4]: some antagonist activity
effect on twitch contraction amplitude (Sigma 1 [2]): more complex behavior

CCN[C@@H](C)Cc1cccc(C(F)(F)F)c1 [(+)fenfluramine]
antagonist activity at the beta-2 adrenergic receptor [3]: antagonist activity

Br.CCCN(CCC)C1CCc2cccc(O)c2C1 (centres unmarked) [Compound 8-OH-DPAT, 7-(Dipropylamino)-5,6,7,8-tetrahydronaphthalen-1-ol hydrobromide]
active dose in forced swim test published previously (Swiss OF-1 mice [5]): 0.25 to 1 mg/kg
dose reducing immobility duration in the FST (Swiss OF-1 mice [6]): 3 mg/kg
active dose in forced swim test published previously (rats; male CD-COBS rats, Cervo & Samanin (1987)): 0.25 to 0.5 mg/kg
active dose in forced swim test published previously (rats; male Sprague-Dawley rats, Singh & Lucki (1993)): 0.5 mg/kg

CCN[C@@H](C)Cc1cccc(C(F)(F)F)c1 [Dexfenfluramine]
IC50 [7]: 7520 nM
Ki [7]: 7100 nM
IC50 (serotonin 5-HT1A): 1290 nM
Ki (serotonin 5-HT1A): 711 nM
IC50 (Sigma 1 [8]): 125 nM
Ki (Sigma 1 [8]): 109 nM
IC50 (hNav1.5): > 30000 nM

CC[C@@](C/C=C/c1ccccc1)(c1ccccc1)N(C)CC1CC1.Cl [Igmesine, (R)-(+)-N-Cyclopropylmethyl-α-ethyl-N-methyl-α-[(2E)-3-phenyl-2-propenyl)benzenemethanamine hydrochloride]
dose reducing immobility duration in the FST (Swiss OF-1 mice [6]): 30 mg/kg

Cl.O=C(OCCN1CCOCC1)C1(c2ccccc2)CCCCC1 [PRE-084, 2-(4-Morpholinethyl)-1-phenylcyclohexanecarboxylate hydrochloride]
dose attenuating dizocilpine-induced deficit in passive avoidance response (minimal active dose) (Swiss OF-1 mice [9]): 0.3 mg/kg
dose attenuating dizocilpine-induced deficit in spontaneous alternation (Swiss OF-1 mice [10]): 0.3 mg/kg

CNCCC(Oc1ccc(C(F)(F)F)cc1)c1ccccc1 (centres unmarked) [fluoxetine]
ED50, blockade of S-IRA (comparison value) (DBA/1 mice): 22.2 mg/kg

CC(N)Cc1cccc(C(F)(F)F)c1 (centres unmarked) [norfenfluramine]
binding relative to positive controls (serotonin 5-HT1A; [15]): moderate binding
inhibition of receptor binding (tracer) (serotonin 5-HT1A; [16]): significantly inhibit
binding relative to positive controls [11, 15]: moderate binding
inhibition of receptor binding (tracer) ([11]; test article 1×10^−6 and 1×10^−5 mol/L, human recombinant): significantly inhibit
antagonist activity at the beta-2 adrenergic receptor [3]: some antagonist activity
effect on the (+)SKF-10,047-induced increase in twitch contraction amplitude (Sigma 1 [12]): concentration-dependent inhibition
binding relative to positive controls (Sigma non-selective; [15]): moderate binding
inhibition of receptor binding (tracer) (Sigma non-selective; test article 1×10^−6 and 1×10^−5 mol/L, guinea pig brain): significantly inhibit
effect on twitch contraction amplitude (Sigma 1 [2]; listed as Racemic norfenfluramine): concentration-dependent decrease
binding relative to positive controls ([13]; Example 2, seven concentrations, β-1 adrenergic): moderate binding
inhibition of receptor binding (tracer) [13, 17]: significantly inhibit
binding relative to positive controls (Na channel; [15]): moderate binding
inhibition of receptor binding (tracer) (Na channel; [17]): significantly inhibit
activity at the Nav1.5 ion channel (hNav1.5; patch clamp, 0.37-30 μM): weak antagonist
binding relative to positive controls (Muscarinic M1; [15]): moderate binding
inhibition of receptor binding (tracer) (Muscarinic M1; [16]): significantly inhibit

C[C@@H]1CN(CCCn2c3ccccc3c3ccccc32)C[C@H](C)N1 [rimcazole]
effect on the (+)SKF-10,047-induced increase in twitch contraction amplitude (Sigma 1 [12]): inhibited
